# In patent US6355799B1, “Substituted benzene compounds, process for their preparation, and herbicidal and defoliant compositions containing them” (ISK Americas Incorporated, priority 1997, dated 2002):
# What was measured:
# Assay type in all cases: in vivo
# [1] = system: large crabgrass (Digitaria sanguinalis, DIGSA); test: Pre-emerge test, greenhouse herbicide activity screening; settings: pre-emerge, rated 14 days after application, 0 = no damage, 100 = complete death
# Outline: (§1)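 Fourteen days after spraying, crop and weed injury was graded visually from 0, no effect, to 100, every plant dead. Test substances were dissolved in acetone and applied at 15–1000 g ai/ha with a flat-fan nozzle. Application was either pre-emergence, one day after sowing, or post-emergence at the 2–3 leaf stage.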
# [2] = system: sicklepod (Cassia obtusifolia, CASOB); test: as above; settings: pre-emerge, rated 14 days after application, 0 = no damage, 100 = complete death
# Outline: as §1
# [3] = system: velvetleaf (Abutilon theophrasti, ABUTH); test: as above; settings: pre-emerge, rated 14 days after application, 0 = no damage, 100 = complete death
# Outline: as §1
# [4] = system: green foxtail (Setaria viridis, SETVI); test: as above; settings: pre-emerge, rated 14 days after application, 0 = no damage, 100 = complete death
# Outline: as §1
# [5] = system: lambsquarters (Chenopodium album, CHEAL); test: as above; settings: pre-emerge, rated 14 days after application, 0 = no damage, 100 = complete death
# Outline: as §1
# [6] = system: johnsongrass (Sorghum halepense, SORHA); test: as above; settings: pre-emerge, rated 14 days after application, 0 = no damage, 100 = complete death
# Outline: as §1
# [7] = system: ivyleaf morningglory (Ipomoea hederacea, IPOHE); test: as above; settings: pre-emerge, rated 14 days after application, 0 = no damage, 100 = complete death
# Outline: as §1
# [8] = system: barnyardgrass (Echinochloa crus-galli, ECHCG); test: as above; settings: pre-emerge, rated 14 days after application, 0 = no damage, 100 = complete death
# Outline: as §1
# [9] = system: redroot pigweed (Amaranthus retroflexus, AMARE); test: Post-emerge test, greenhouse herbicide activity screening; settings: phytotoxicity rating 0-100 (0 no damage, 100 complete death), 14 days after application
# Outline: (§2)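 Each test used a mechanized track sprayer delivering 187 l/ha of acetone solution at 15–1000 g ai/ha. Post-emerge foliage at 2–3 leaves was treated with added 0.25% v/v non-ionic surfactant and bottom-watered only. Injury was assessed on day 14, where 100 means total kill.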
# [10] = system: large crabgrass (Digitaria sanguinalis, DIGSA); test: as above; settings: phytotoxicity rating 0-100 (0 no damage, 100 complete death), 14 days after application
# Outline: as §2
# [11] = system: sicklepod (Cassia obtusifolia, CASOB); test: as above; settings: phytotoxicity rating 0-100 (0 no damage, 100 complete death), 14 days after application
# Outline: as §2
# [12] = system: velvetleaf (Abutilon theophrasti, ABUTH); test: as above; settings: phytotoxicity rating 0-100 (0 no damage, 100 complete death), 14 days after application
# Outline: as §2
# [13] = system: green foxtail (Setaria viridis, SETVI); test: as above; settings: phytotoxicity rating 0-100 (0 no damage, 100 complete death), 14 days after application
# Outline: as §2
# [14] = system: lambsquarters (Chenopodium album, CHEAL); test: as above; settings: phytotoxicity rating 0-100 (0 no damage, 100 complete death), 14 days after application
# Outline: as §2
# [15] = system: johnsongrass (Sorghum halepense, SORHA); test: as above; settings: phytotoxicity rating 0-100 (0 no damage, 100 complete death), 14 days after application
# Outline: as §2
# [16] = system: ivyleaf morningglory (Ipomoea hederacea, IPOHE); test: as above; settings: phytotoxicity rating 0-100 (0 no damage, 100 complete death), 14 days after application
# Outline: as §2
# [17] = system: barnyardgrass (Echinochloa crus-galli, ECHCG); test: as above; settings: phytotoxicity rating 0-100 (0 no damage, 100 complete death), 14 days after application
# Outline: as §2
# [18] = system: redroot pigweed (Amaranthus retroflexus, AMARE); test: Pre-emerge test, greenhouse herbicide activity screening; settings: pre-emerge, rated 14 days after application, 0 = no damage, 100 = complete death
# Outline: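 Sandy loam pots; pre-emerge: sown 1 d pre-spray, surface-watered after, then bottom-watered. Post-emerge: sown 8–21 d before, 2–3 leaf stage, + 0.25% v/v NIS, bottom-watered. Acetone, 187 l/ha track spray, 15–1000 g ai/ha. 0–100 injury score, day 14.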
# [19] = system: upland rice (Oryza sp., var. Tebonnet, RICE); test: Post-emerge test, crop safety; settings: phytotoxicity rating 0-100 (0 no damage, 100 complete death), 14 days after application
# Outline: as §1
# [20] = system: field corn (Zea mays L., var. Dekalb 535, CORN); test: Post-emerge test, crop safety; settings: phytotoxicity rating 0-100 (0 no damage, 100 complete death), 14 days after application
# Outline: as §1
# [21] = system: upland rice (Oryza sp., var. Tebonnet, RICE); test: Pre-emerge test, crop safety; settings: pre-emerge, rated 14 days after application, 0 = no damage, 100 = complete death
# Outline: (§3)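 Visual ratings on a 0-100 scale (0 no damage, 100 all plants dead) were taken at 14 days after treatment. Rates of 15-1000 g ai/ha in acetone, 187 l/ha, were sprayed onto soil one day after planting (pre-emerge) or onto 2-3 leaf plants with 0.25% v/v surfactant (post-emerge).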
# [22] = system: field corn (Zea mays L., var. Dekalb 535, CORN); test: Pre-emerge test, crop safety; settings: pre-emerge, rated 14 days after application, 0 = no damage, 100 = complete death
# Outline: as §3
smiles,measurement,setting,value
CCc1ccc(C(=O)Nc2c(OCC#N)c(Cl)cc(F)c2-n2c(=O)cc(C(F)(F)F)n(C)c2=O)cc1 [2-28],"Pre-emerge Herbicidal Activity DIGSA (phytotoxicity rating, scale 0-100)",[1]; 63 g ai/ha,50
same,"Pre-emerge Herbicidal Activity DIGSA (phytotoxicity rating, scale 0-100)",[1]; 250 g ai/ha,90
same,"Pre-emerge Herbicidal Activity CASOB (phytotoxicity rating, scale 0-100)",[2]; 63 g ai/ha,5
same,"Pre-emerge Herbicidal Activity CASOB (phytotoxicity rating, scale 0-100)",[2]; 250 g ai/ha,100
same,"Pre-emerge Herbicidal Activity ABUTH (phytotoxicity rating, scale 0-100)",[3]; 63 g ai/ha,100
same,"Pre-emerge Herbicidal Activity ABUTH (phytotoxicity rating, scale 0-100)",[3]; 250 g ai/ha,100
same,"Pre-emerge Herbicidal Activity SETVI (phytotoxicity rating, scale 0-100)",[4]; 63 g ai/ha,50
same,"Pre-emerge Herbicidal Activity SETVI (phytotoxicity rating, scale 0-100)",[4]; 250 g ai/ha,100
same,"Pre-emerge Herbicidal Activity CHEAL (phytotoxicity rating, scale 0-100)",[5]; 63 g ai/ha,100
same,"Pre-emerge Herbicidal Activity CHEAL (phytotoxicity rating, scale 0-100)",[5]; 250 g ai/ha,100
same,"Pre-emerge Herbicidal Activity SORHA (phytotoxicity rating, scale 0-100)",[6]; 63 g ai/ha,10
same,"Pre-emerge Herbicidal Activity SORHA (phytotoxicity rating, scale 0-100)",[6]; 250 g ai/ha,50
same,"Pre-emerge Herbicidal Activity IPOHE (phytotoxicity rating, scale 0-100)",[7]; 63 g ai/ha,80
same,"Pre-emerge Herbicidal Activity IPOHE (phytotoxicity rating, scale 0-100)",[7]; 250 g ai/ha,100
same,"Pre-emerge Herbicidal Activity ECHCG (phytotoxicity rating, scale 0-100)",[8]; 63 g ai/ha,0
same,"Pre-emerge Herbicidal Activity ECHCG (phytotoxicity rating, scale 0-100)",[8]; 250 g ai/ha,20
same,Post-emerge Herbicidal Activity AMARE,[9]; 63 g ai/ha,100
same,Post-emerge Herbicidal Activity AMARE,[9]; 250 g ai/ha,100
same,Post-emerge Herbicidal Activity DIGSA,[10]; 63 g ai/ha,0
same,Post-emerge Herbicidal Activity DIGSA,[10]; 250 g ai/ha,0
same,Post-emerge Herbicidal Activity CASOB,[11]; 63 g ai/ha,30
same,Post-emerge Herbicidal Activity CASOB,[11]; 250 g ai/ha,20
same,Post-emerge Herbicidal Activity ABUTH,[12]; 63 g ai/ha,100
same,Post-emerge Herbicidal Activity ABUTH,[12]; 250 g ai/ha,100
same,Post-emerge Herbicidal Activity SETVI,[13]; 63 g ai/ha,30
same,Post-emerge Herbicidal Activity SETVI,[13]; 250 g ai/ha,30
same,Post-emerge Herbicidal Activity CHEAL,[14]; 63 g ai/ha,60
same,Post-emerge Herbicidal Activity CHEAL,[14]; 250 g ai/ha,60
same,Post-emerge Herbicidal Activity SORHA,[15]; 63 g ai/ha,0
same,Post-emerge Herbicidal Activity SORHA,[15]; 250 g ai/ha,0
same,Post-emerge Herbicidal Activity IPOHE,[16]; 63 g ai/ha,60
same,Post-emerge Herbicidal Activity IPOHE,[16]; 250 g ai/ha,50
same,Post-emerge Herbicidal Activity ECHCG,[17]; 63 g ai/ha,0
same,Post-emerge Herbicidal Activity ECHCG,[17]; 250 g ai/ha,0
same,"Pre-emerge Herbicidal Activity AMARE (phytotoxicity rating, scale 0-100)",[18]; 63 g ai/ha,100
same,"Pre-emerge Herbicidal Activity AMARE (phytotoxicity rating, scale 0-100)",[18]; 250 g ai/ha,100
same,Post-emerge Herbicidal Activity RICE (crop damage),[19]; 63 g ai/ha,90
same,Post-emerge Herbicidal Activity RICE (crop damage),[19]; 250 g ai/ha,90
same,Post-emerge Herbicidal Activity CORN (crop damage),[20]; 63 g ai/ha,15
same,Post-emerge Herbicidal Activity CORN (crop damage),[20]; 250 g ai/ha,25
same,"Pre-emerge crop damage RICE (phytotoxicity rating, scale 0-100)",[21]; 63 g ai/ha,60
same,"Pre-emerge crop damage RICE (phytotoxicity rating, scale 0-100)",[21]; 250 g ai/ha,70
same,"Pre-emerge crop damage CORN (phytotoxicity rating, scale 0-100)",[22]; 63 g ai/ha,0
same,"Pre-emerge crop damage CORN (phytotoxicity rating, scale 0-100)",[22]; 250 g ai/ha,10
